Reference: ChEMBL document CHEMBL5393446, “3-(1-oxo-5-(piperidin-4-yl)isoindolin-2-yl)piperidine-2,6-dione derivatives and uses thereof” (2022)

Target: Zinc finger protein Helios (Homo sapiens) (UniProt Q9UKS7)
Assay: Induction of IKZF2 degradation in human GripTite 293 MSR cells at 30 uM incubated for 24 hrs by PathHunter assay relative to control
Format: cell-based

Zinc finger protein Helios (Homo sapiens), sequence (Q9UKS7 whole entry): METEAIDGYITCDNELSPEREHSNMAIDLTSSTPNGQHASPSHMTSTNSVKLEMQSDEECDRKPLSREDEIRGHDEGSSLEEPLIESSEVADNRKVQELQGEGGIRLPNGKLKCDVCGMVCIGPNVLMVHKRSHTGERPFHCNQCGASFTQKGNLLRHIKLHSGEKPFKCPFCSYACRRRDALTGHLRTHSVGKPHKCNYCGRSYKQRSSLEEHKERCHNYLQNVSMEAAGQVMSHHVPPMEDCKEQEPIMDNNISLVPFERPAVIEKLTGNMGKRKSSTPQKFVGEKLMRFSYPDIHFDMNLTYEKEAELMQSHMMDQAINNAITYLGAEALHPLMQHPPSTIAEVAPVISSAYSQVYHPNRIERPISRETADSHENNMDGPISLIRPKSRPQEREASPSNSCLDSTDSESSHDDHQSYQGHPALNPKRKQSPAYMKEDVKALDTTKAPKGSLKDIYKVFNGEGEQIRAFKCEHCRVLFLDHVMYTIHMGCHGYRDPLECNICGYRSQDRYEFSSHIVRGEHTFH

SMILES | Activity [%]
CC1CC(c2ccc3c(c2)CN(C2CCC(=O)NC2=O)C3=O)CC(C)N1Cc1ccccc1 (configuration not stated) | 35
CC1CC(c2ccc3c(c2)CN(C2CCC(=O)NC2=O)C3=O)CC(C)N1 (configuration not stated) | 30
